Laboratory results taken from ChEMBL document CHEMBL1201862, “PubChem BioAssay data set” (2004).
Calls of active or inactive are those of the source.

Columns and labels:
HEK293 [1] = test: cells; conditions: Homo sapiens
[2] = biological target: T1, High affinity choline transporter 1 (Homo sapiens, UniProt Q9GZV3); test: CHT inhibitors, dose response, cell-based, 10-point CRC, membrane potential dye (AID 588401); type: functional;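 further: membrane potential dye fluorescence of choline-evoked depolarization via CHT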
T1 sequence (Q9GZV3 whole entry): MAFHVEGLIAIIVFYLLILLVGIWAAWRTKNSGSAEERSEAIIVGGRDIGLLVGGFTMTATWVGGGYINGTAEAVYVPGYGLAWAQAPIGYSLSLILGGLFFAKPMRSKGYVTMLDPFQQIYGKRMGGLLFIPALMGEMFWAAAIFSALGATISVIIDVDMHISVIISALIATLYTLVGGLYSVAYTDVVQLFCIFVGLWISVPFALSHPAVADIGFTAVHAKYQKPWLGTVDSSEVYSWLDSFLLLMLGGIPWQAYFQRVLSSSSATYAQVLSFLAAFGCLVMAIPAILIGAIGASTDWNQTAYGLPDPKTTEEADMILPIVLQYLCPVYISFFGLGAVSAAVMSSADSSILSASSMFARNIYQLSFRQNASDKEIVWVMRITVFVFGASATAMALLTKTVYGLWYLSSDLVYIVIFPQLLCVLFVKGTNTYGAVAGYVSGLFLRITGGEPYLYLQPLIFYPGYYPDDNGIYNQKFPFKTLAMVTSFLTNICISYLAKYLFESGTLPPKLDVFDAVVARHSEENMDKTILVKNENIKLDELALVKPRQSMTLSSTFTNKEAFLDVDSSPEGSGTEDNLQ

[3] = biological target: T1, High affinity choline transporter 1; test: CHT inhibitors, dose response, cell-based, 5-point CRC, membrane potential dye (AID 504840); type: functional
[4] = biological target: Luciferin 4-monooxygenase (Photinus pyralis, UniProt P08659); test: firefly luciferase enzyme inhibitors, dose response, biochemical, luminescence (AID 1891)
Chain of Luciferin 4-monooxygenase (P08659 whole entry): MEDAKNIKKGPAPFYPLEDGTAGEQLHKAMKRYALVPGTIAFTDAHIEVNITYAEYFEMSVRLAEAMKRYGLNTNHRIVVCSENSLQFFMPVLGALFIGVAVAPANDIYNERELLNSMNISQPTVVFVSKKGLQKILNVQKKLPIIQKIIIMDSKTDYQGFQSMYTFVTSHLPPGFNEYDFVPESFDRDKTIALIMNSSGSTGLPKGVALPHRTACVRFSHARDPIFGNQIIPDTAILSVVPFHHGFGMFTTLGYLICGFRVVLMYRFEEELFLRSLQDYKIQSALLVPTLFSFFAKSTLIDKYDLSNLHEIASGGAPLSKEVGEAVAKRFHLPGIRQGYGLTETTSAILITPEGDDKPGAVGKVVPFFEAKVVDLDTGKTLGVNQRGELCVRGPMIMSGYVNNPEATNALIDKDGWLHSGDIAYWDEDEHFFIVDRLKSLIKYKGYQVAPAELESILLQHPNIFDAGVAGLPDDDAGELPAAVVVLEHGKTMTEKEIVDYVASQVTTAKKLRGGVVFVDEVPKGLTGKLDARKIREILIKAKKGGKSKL

HEK293 [5] = test: cells; conditions: Homo sapiens; remark: listed apart in the source
[6] = Luminescence Cell-Based Dose Confirmation HTS to Identify Inhibitors of Platelet Dense Granule Release. [Related pubchem assays: 1663 (Primary HTS), 1678 (Summary of Project)]; type: functional

For `C=C[C@@]1(C)CC(=O)[C@]2(O)[C@@]3(C)[C@@H](O)CCC(C)(C)[C@@H]3[C@H](OC(C)=O)[C@H](O)[C@@]2(C)O1`, the EC50 (HEK293 [1]) was > 59.7 µM (inactive), the IC50 [2] was 0.815 µM (active) and the IC50 [3] was 1.52 µM (active). For the same compound, the EC50 [4] was > 112 µM (not active), the EC50 (HEK293 [5]) was > 59.7 µM (inactive) and the EC50 [6] was 4.26 µM (active).
